In PubChem BioAssay AID1963843 (Molecular Pharmacology Branch, DTP, NCI, 2024):

Tested on: 616215-338-R-J1-PDC complex spheroid viability
Experiment: Anticancer human tumor 616215-338-R-J1-PDC patient-derived colon adenocarcinoma cell line growth inhibition [POLQ]
Settings: for IC50: curve of first compound; for viability, T/C: stronger effect = lower value; active = viability on the fitted dose curve at most 10% of control; inactive = the rest
Summary of the method: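 Three-cell-type spheroids modelling solid tumor plus stroma served as the readout system; POL inhibitors were tested individually and in combination, concentration ranges set by clinical Cmax where known.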

[1] = second compound 0.0316 µM, first compound 0.0316 µM
[2] = second compound 0.0316 µM, first compound 0.1 µM
[3] = second compound 0.0316 µM, first compound 0.316 µM
[4] = second compound 0.0316 µM, first compound 1 µM
[5] = second compound 0.0316 µM, first compound 3.16 µM
[6] = second compound 0.0316 µM, first compound 10 µM
[7] = second compound 0.1 µM, first compound 0.0316 µM
[8] = second compound 0.1 µM, first compound 0.1 µM
[9] = second compound 0.1 µM, first compound 0.316 µM
[10] = second compound 0.1 µM, first compound 1 µM
[11] = second compound 0.1 µM, first compound 3.16 µM
[12] = second compound 0.1 µM, first compound 10 µM
[13] = second compound 0.316 µM, first compound 0.0316 µM
[14] = second compound 0.316 µM, first compound 0.1 µM
[15] = second compound 0.316 µM, first compound 0.316 µM
[16] = second compound 0.316 µM, first compound 1 µM
[17] = second compound 0.316 µM, first compound 3.16 µM
[18] = second compound 0.316 µM, first compound 10 µM
[19] = second compound 1 µM, first compound 0.0316 µM
[20] = second compound 1 µM, first compound 0.1 µM
[21] = second compound 1 µM, first compound 0.316 µM
[22] = second compound 1 µM, first compound 1 µM
[23] = second compound 1 µM, first compound 3.16 µM
[24] = second compound 1 µM, first compound 10 µM
[25] = second compound 3.16 µM, first compound 0.0316 µM
[26] = second compound 3.16 µM, first compound 0.1 µM
[27] = second compound 3.16 µM, first compound 0.316 µM
[28] = second compound 3.16 µM, first compound 1 µM
[29] = second compound 3.16 µM, first compound 3.16 µM
[30] = second compound 3.16 µM, first compound 10 µM
[31] = second compound 10 µM, first compound 0.0316 µM
[32] = second compound 10 µM, first compound 0.1 µM
[33] = second compound 10 µM, first compound 0.316 µM
[34] = second compound 10 µM, first compound 1 µM
[35] = second compound 10 µM, first compound 3.16 µM
[36] = second compound 10 µM, first compound 10 µM
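Note: spheroids exposed to compounds for one week before readout.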
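Throughout, for viability, T/C: percent viability relative to DMSO vehicle wells taken as 100%.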

CCc1cc2c(N3CCc4c(cc(Cn5ccnc5)cc4-c4cn(C)nc4C(F)(F)F)C3=O)ccnc2c(OC)n1 + COC1C(OC(N)=O)C(O)C(Oc2ccc3c(O)c(NC(=O)c4ccc(O)c(CC=C(C)C)c4)c(=O)oc3c2C)OC1(C)C
9.64 µM: IC50 (second compound 3.16 µM)
9.75 µM: IC50 (second compound 1 µM)
inactive: viability, T/C [1] 97.2% | viability, T/C [2] 108% | viability, T/C [3] 111% | viability, T/C [4] 106% | viability, T/C [5] 80% | viability, T/C [6] 52.8% | viability, T/C [7] 106% | viability, T/C [8] 108% | viability, T/C [9] 92.9% | viability, T/C [10] 106% | viability, T/C [11] 77% | viability, T/C [12] 50.3% | viability, T/C [13] 96% | viability, T/C [14] 103% | viability, T/C [15] 115% | viability, T/C [16] 102% | viability, T/C [17] 66.5% | viability, T/C [18] 53.8% | viability, T/C [19] 105% | viability, T/C [20] 98.7% | viability, T/C [21] 99% | viability, T/C [22] 100% | viability, T/C [23] 81.4% | viability, T/C [24] 49.3% | viability, T/C [25] 106% | viability, T/C [26] 100% | viability, T/C [27] 103% | viability, T/C [28] 98.2% | viability, T/C [29] 74.8% | viability, T/C [30] 49.2% | viability, T/C [31] 109% | viability, T/C [32] 97.7% | viability, T/C [33] 102% | viability, T/C [34] 93.1% | viability, T/C [35] 67.7% | viability, T/C [36] 46.7%
> 10 µM: IC50 (second compound 0.0316 µM) | IC50 (second compound 0.1 µM) | IC50 (second compound 0.316 µM)
8.33 µM: IC50 (second compound 10 µM)

CNCc1ccc(-c2[nH]c3cc(F)cc4c3c2CCNC4=O)cc1 + Cc1cccc(N(C)C(=O)C2C(O)CCN2c2nc(C)cc(C(F)(F)F)c2C#N)c1
inactive: viability, T/C [1] 96.9% | viability, T/C [2] 99.2% | viability, T/C [3] 105% | viability, T/C [4] 105% | viability, T/C [5] 106% | viability, T/C [6] 86.2% | viability, T/C [7] 101% | viability, T/C [8] 97.7% | viability, T/C [9] 95.5% | viability, T/C [10] 101% | viability, T/C [11] 108% | viability, T/C [12] 73.8% | viability, T/C [13] 99.8% | viability, T/C [14] 103% | viability, T/C [15] 96.6% | viability, T/C [16] 105% | viability, T/C [17] 105% | viability, T/C [18] 72.8% | viability, T/C [19] 107% | viability, T/C [20] 108% | viability, T/C [21] 102% | viability, T/C [22] 103% | viability, T/C [23] 112% | viability, T/C [24] 70% | viability, T/C [25] 111% | viability, T/C [26] 109% | viability, T/C [27] 111% | viability, T/C [28] 104% | viability, T/C [29] 102% | viability, T/C [30] 65.4% | viability, T/C [31] 122% | viability, T/C [32] 105% | viability, T/C [33] 109% | viability, T/C [34] 107% | viability, T/C [35] 108% | viability, T/C [36] 74.7%
> 10 µM: IC50 (second compound 0.0316 µM) | IC50 (second compound 0.1 µM) | IC50 (second compound 0.316 µM) | IC50 (second compound 1 µM) | IC50 (second compound 3.16 µM) | IC50 (second compound 10 µM)

CC1COCCN1c1cc(C2(S(C)(=N)=O)CC2)nc(-c2ccnc3[nH]ccc23)n1 (stereo not drawn) + Nc1ccc(C#CCN(C(=O)Cc2ncc(C(F)(F)F)cc2C(F)(F)F)c2ccc(F)cc2)nn1
5.38 µM: IC50 (second compound 1 µM)
5.39 µM: IC50 (second compound 0.1 µM)
6.99 µM: IC50 (second compound 3.16 µM)
2.88 µM: IC50 (second compound 10 µM)
inactive: viability, T/C [1] 115% | viability, T/C [2] 96.5% | viability, T/C [3] 93% | viability, T/C [4] 93.4% | viability, T/C [5] 56.9% | viability, T/C [6] 32.6% | viability, T/C [7] 93.9% | viability, T/C [8] 104% | viability, T/C [9] 94.3% | viability, T/C [10] 94.7% | viability, T/C [11] 63.1% | viability, T/C [12] 34.7% | viability, T/C [13] 101% | viability, T/C [14] 97.6% | viability, T/C [15] 93.8% | viability, T/C [16] 97.3% | viability, T/C [17] 62.3% | viability, T/C [18] 43.7% | viability, T/C [19] 108% | viability, T/C [20] 101% | viability, T/C [21] 90.9% | viability, T/C [22] 84.7% | viability, T/C [23] 59.9% | viability, T/C [24] 36.5% | viability, T/C [25] 87.5% | viability, T/C [26] 95.3% | viability, T/C [27] 87.4% | viability, T/C [28] 83% | viability, T/C [29] 68.8% | viability, T/C [30] 41.6% | viability, T/C [31] 96.5% | viability, T/C [32] 91.5% | viability, T/C [33] 78.2% | viability, T/C [34] 92.1% | viability, T/C [35] 46.5% | viability, T/C [36] 35.5%
6.77 µM: IC50 (second compound 0.316 µM)
4.98 µM: IC50 (second compound 0.0316 µM)

COc1cc2cc(C(=O)CCC(=O)O)sc2cc1OC + Nc1ccc(C#CCN(C(=O)Cc2ncc(C(F)(F)F)cc2C(F)(F)F)c2ccc(F)cc2)nn1
> 10 µM: IC50 (second compound 0.0316 µM) | IC50 (second compound 0.1 µM) | IC50 (second compound 0.316 µM) | IC50 (second compound 1 µM) | IC50 (second compound 3.16 µM) | IC50 (second compound 10 µM)
inactive: viability, T/C [1] 109% | viability, T/C [2] 105% | viability, T/C [3] 110% | viability, T/C [4] 108% | viability, T/C [5] 109% | viability, T/C [6] 102% | viability, T/C [7] 108% | viability, T/C [8] 106% | viability, T/C [9] 117% | viability, T/C [10] 104% | viability, T/C [11] 119% | viability, T/C [12] 108% | viability, T/C [13] 112% | viability, T/C [14] 108% | viability, T/C [15] 105% | viability, T/C [16] 108% | viability, T/C [17] 113% | viability, T/C [18] 99.9% | viability, T/C [19] 110% | viability, T/C [20] 102% | viability, T/C [21] 101% | viability, T/C [22] 113% | viability, T/C [23] 115% | viability, T/C [24] 102% | viability, T/C [25] 108% | viability, T/C [26] 101% | viability, T/C [27] 108% | viability, T/C [28] 103% | viability, T/C [29] 107% | viability, T/C [30] 101% | viability, T/C [31] 95.3% | viability, T/C [32] 91.1% | viability, T/C [33] 86.8% | viability, T/C [34] 97.2% | viability, T/C [35] 89.3% | viability, T/C [36] 79.2%
